The source made the active and inactive calls. No cut-off for these calls is given here.
Assays:
[1] = molecular target: T1, 5-hydroxytryptamine receptor 7 (Homo sapiens, UniProt P34969); assay: Displacement of [3H]-5-CT from human 5HT7 receptor expressed in HEK293 cells measured after 1 hr by microbeta counting method; assay type: cell-based
[2] = molecular target: T2, 5-hydroxytryptamine receptor 1A (Homo sapiens, UniProt P08908); assay: Displacement of [3H]8-OH-DPAT from human 5HT1A receptor expressed in HEK293 cells measured after 1 hr by microbeta counting method; assay type: cell-based
T2 sequence (P08908 whole entry): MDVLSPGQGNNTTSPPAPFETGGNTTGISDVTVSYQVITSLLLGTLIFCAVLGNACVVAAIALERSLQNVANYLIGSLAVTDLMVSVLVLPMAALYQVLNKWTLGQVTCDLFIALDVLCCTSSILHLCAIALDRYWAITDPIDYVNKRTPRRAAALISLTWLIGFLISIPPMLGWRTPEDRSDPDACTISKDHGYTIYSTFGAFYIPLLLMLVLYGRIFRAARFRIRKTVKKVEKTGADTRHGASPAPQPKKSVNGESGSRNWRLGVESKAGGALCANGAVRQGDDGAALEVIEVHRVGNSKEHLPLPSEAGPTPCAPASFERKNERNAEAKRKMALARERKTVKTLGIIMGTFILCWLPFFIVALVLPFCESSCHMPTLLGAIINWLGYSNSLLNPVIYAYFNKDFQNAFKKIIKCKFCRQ

[3] = molecular target: High affinity 3',5'-cyclic-AMP phosphodiesterase 7A (Homo sapiens, UniProt Q13946); assay: Inhibition of recombinant human PDE7A expressed in Sf9 cells measured after 10 mins by luminescence based assay
[4] = molecular target: 3',5'-cyclic-AMP phosphodiesterase 4B (Homo sapiens, UniProt Q07343); assay: Inhibition of recombinant human PDE4B expressed in Sf9 cells measured after 10 mins by luminescence based assay
[5] = Toxicity in Wistar rat assessed as rearings at 20 mg/kg, ip measured after 30 mins by open field test; assay type: organism-based; conditions: in vivo, 0.5 h
Rattus norvegicus = assay: Antidepressant-like activity in Wistar rat assessed as reduction in immobility time at 20 mg/kg, ip measured after 30 mins by Forced swimming test; assay type: functional; conditions: 0.5 h
[6] = Toxicity in Wistar rat assessed as total ambulations at 20 mg/kg, ip measured after 30 mins by open field test; assay type: organism-based; conditions: in vivo, 0.5 h
[7] = Toxicity in Wistar rat assessed as total distance travelled at 20 mg/kg, ip measured after 30 mins by open field test (reference value: 1897.3 +/-98.6 cm); assay type: organism-based; conditions: in vivo, 0.5 h
[8] = molecular target: T1, 5-hydroxytryptamine receptor 7; assay: Binding affinity to 5HT7 receptor (unknown origin)
[9] = molecular target: T2, 5-hydroxytryptamine receptor 1A; assay: Binding affinity to 5HT-1A receptor (unknown origin)
[10] = Metabolic stability of the compound in rat liver microsomes assessed as parent compound remaining at 50 uM preincubated for 5 mins followed by incubation with NADPH regenerating system for 120 mins by LC/MS analysis; assay type: ADME, Microsome; conditions: read-out: Stabilty
[11] = molecular target: T1, 5-hydroxytryptamine receptor 7; assay: Antagonist activity at recombinant human 5HT7 receptor expressed in CHO-K1 cells co-transfected with beta-lactamase reporter gene assessed as inhibition of serotonin-induced cAMP accumulation measured after 1 hr by LANCE TR-FRET assay; assay type: functional, cell-based; conditions: filed as antagonist
[12] = molecular target: T1, 5-hydroxytryptamine receptor 7; assay: Agonist activity at recombinant human 5HT7 receptor expressed in CHO-K1 cells co-transfected with beta-lactamase reporter gene assessed as cAMP accumulation measured after 1 hr by LANCE TR-FRET assay; assay type: functional, cell-based
[13] = Effective permeability of the compound at 200 uM incubated for 5 hrs by PAMPA based UPLC/MS analysis; assay type: ADME; conditions: read-out: Peff
[14] = Toxicity in Wistar rat assessed as rearings at 3 to 10 mg/kg, ip measured after 60 mins by open field test; assay type: organism-based; conditions: in vivo, 1 h
[15] = Toxicity in Wistar rat assessed as total ambulations at 3 to 10 mg/kg, ip measured after 60 mins by open field test; assay type: organism-based; conditions: in vivo, 1 h

T1 sequence (P34969 whole entry): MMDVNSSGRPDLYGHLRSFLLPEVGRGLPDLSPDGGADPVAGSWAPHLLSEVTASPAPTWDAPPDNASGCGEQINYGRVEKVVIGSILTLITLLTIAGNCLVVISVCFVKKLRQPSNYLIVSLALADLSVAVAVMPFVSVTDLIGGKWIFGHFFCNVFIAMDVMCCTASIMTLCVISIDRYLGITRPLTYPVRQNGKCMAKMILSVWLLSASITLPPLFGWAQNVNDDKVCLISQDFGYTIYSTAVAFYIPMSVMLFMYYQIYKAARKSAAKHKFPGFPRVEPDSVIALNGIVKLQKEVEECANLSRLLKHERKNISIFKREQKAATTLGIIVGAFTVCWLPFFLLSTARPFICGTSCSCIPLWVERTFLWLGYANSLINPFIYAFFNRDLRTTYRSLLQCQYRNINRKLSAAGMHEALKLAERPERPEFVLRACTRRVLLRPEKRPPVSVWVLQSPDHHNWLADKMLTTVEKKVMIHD
3',5'-cyclic-AMP phosphodiesterase 4B, sequence (Q07343 whole entry): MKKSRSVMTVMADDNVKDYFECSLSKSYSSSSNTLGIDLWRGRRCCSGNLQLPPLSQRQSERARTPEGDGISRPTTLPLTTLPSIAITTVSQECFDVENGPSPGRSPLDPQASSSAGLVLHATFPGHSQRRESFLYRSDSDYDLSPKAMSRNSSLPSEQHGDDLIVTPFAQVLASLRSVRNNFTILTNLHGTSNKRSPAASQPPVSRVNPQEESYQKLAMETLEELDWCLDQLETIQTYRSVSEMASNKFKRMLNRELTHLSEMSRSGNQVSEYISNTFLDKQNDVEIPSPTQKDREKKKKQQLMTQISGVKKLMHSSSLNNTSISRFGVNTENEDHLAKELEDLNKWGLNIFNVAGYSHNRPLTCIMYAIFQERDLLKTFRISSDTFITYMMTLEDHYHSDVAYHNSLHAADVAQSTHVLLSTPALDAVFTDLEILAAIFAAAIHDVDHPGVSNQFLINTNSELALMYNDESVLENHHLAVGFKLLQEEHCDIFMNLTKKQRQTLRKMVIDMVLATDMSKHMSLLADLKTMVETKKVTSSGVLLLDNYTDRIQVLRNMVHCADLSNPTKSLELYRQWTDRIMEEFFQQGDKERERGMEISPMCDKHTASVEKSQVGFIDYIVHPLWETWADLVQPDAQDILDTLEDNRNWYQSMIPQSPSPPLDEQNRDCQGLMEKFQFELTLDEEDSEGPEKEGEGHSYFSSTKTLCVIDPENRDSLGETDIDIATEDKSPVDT
High affinity 3',5'-cyclic-AMP phosphodiesterase 7A, sequence (Q13946 whole entry): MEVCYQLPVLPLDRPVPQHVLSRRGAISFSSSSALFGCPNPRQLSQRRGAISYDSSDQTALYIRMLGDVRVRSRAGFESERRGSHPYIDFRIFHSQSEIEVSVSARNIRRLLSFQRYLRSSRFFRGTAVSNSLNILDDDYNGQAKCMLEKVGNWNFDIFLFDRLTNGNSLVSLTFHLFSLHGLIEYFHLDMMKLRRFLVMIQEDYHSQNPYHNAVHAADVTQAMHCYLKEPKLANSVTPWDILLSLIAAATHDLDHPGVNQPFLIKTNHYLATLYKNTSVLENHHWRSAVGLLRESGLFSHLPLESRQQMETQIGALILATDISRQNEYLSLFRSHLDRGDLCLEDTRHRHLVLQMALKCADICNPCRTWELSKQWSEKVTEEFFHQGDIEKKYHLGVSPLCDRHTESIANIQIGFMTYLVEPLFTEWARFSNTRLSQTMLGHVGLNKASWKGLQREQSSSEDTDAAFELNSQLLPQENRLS

| Ki [1] | Ki [2] | Structure (SMILES) | also measured |
| --- | --- | --- | --- |
| 289 nM | 70 nM | COc1ccccc1N1CCN(CCCCCC(=O)NCc2ccccc2O)CC1 | – |
| 159 nM | 61 nM | COc1ccccc1N1CCN(CCCCC(=O)Nc2cc(C(C)(C)C)ccc2O)CC1 | IC50 [3]: > 200000 nM; IC50 [4]: 36500 nM |
| – | – | CN(C)CCC[C@@]1(c2ccc(F)cc2)OCc2cc(C#N)ccc21 [ESCITALOPRAM] | Activity [5]: Non-Toxic; inhibition in vivo at 20 mg/kg (Rattus norvegicus): 49%; Activity [6]: Non-Toxic; Activity [7]: 2058.5 cm |
| 323 nM | 14 nM | CCC(C)c1ccc(NC(=O)CCCCN2CCN(c3ccccc3OC)CC2)cc1 (centres undefined) | IC50 [3]: 126000 nM; IC50 [4]: 169000 nM |
| 1200 nM | – | COc1ccccc1N1CCN(CCCC(=O)Nc2ccc(C(C)(C)C)cc2)CC1 | IC50 [3]: 27000 nM; IC50 [4]: 96000 nM |
| 157 nM | 187 nM | COc1ccccc1N1CCN(CCCC(=O)Nc2cccc(C(C)C)c2)CC1 | – |
| 3280 nM | 287 nM | COc1ccccc1N1CCN(CCCC(=O)Nc2ccc(C(=O)OC(C)(C)C)cc2)CC1 | – |
| – | – | O=S(=O)(NCCCCN1CCN(c2nsc3ccccc23)CC1)c1c[nH]c2ncccc12 | Ki [8]: 93 nM; Ki [9]: 78 nM |
| 343 nM | – | COc1ccccc1N1CCN(CCCCC(=O)NCc2ccccc2O)CC1 | – |
| 300 nM | 31 nM | COc1ccccc1N1CCN(CCCCC(=O)Nc2ccccc2O)CC1 | – |
| 1870 nM | 82 nM | COc1ccccc1N1CCN(CCCCC(=O)Nc2ccccc2C(N)=O)CC1 | – |
| 496 nM | 21 nM | COc1ccccc1N1CCN(CCCCC(=O)Nc2ccc(C(C)(C)C)cc2)CC1 | IC50 [3]: > 200000 nM; IC50 [4]: 138000 nM |
| 471 nM | 405 nM | COc1ccccc1N1CCN(CCCC(=O)Nc2ccccc2O)CC1 | – |
| 927 nM | – | COc1ccccc1N1CCN(CCCCC(=O)Nc2cccc(C(=O)OC(C)(C)C)c2)CC1 | – |
| 514 nM | – | COc1ccccc1N1CCN(CCCCCC(=O)Nc2ccc(C(C)(C)C)cc2)CC1 | – |
| 799 nM | 125 nM | COc1ccccc1N1CCN(CCCCCC(=O)Nc2ccc(C(=O)OC(C)(C)C)cc2)CC1 | – |
| 869 nM | 292 nM | COc1ccccc1CNC(=O)CCCN1CCN(c2ccccc2OC)CC1 | – |
| 319 nM | – | COc1ccccc1N1CCN(CCCC(=O)NCc2ccccc2O)CC1 | – |

| Ki [1] | Ki [2] | Structure (SMILES) | also measured |
| --- | --- | --- | --- |
| 328 nM | – | COc1ccccc1N1CCN(CCCC(=O)Nc2cc(C(C)(C)C)ccc2O)CC1 | IC50 [3]: 57000 nM; IC50 [4]: 69000 nM |
| 1140 nM | 526 nM | COc1ccccc1N1CCN(CCCC(=O)Nc2ccccc2C(N)=O)CC1 | – |
| 354 nM | 37 nM | CCC(C)c1ccc(NC(=O)CCCN2CCN(c3ccccc3OC)CC2)cc1 (centres undefined) | – |
| 75 nM | 16 nM | COc1ccccc1N1CCN(CCCCC(=O)Nc2cccc(C(C)(C)C)c2)CC1.Cl | IC50 [3]: > 200000 nM; remaining at 2 h, 50 µM [10]: 23.8%; IC50 [4]: 130000 nM; Kb [11]: 54 nM; Activity [12]: inactive; Papp at 5 h, 200 µM [13]: 4.8 ×10⁻⁶ cm/s |
| – | – | CCn1cc(C(=O)O)c(=O)c2cc(F)c(N3CCNCC3)cc21 [NORFLOXACIN] | Papp at 5 h, 200 µM [13]: 0.6 ×10⁻⁶ cm/s |
| 254 nM | 95 nM | COc1ccccc1N1CCN(CCCCCC(=O)Nc2ccccc2O)CC1 | – |
| 154 nM | – | COc1ccccc1N1CCN(CCCCCC(=O)Nc2cc(C(C)(C)C)ccc2O)CC1 | – |
| 130 nM | 224 nM | COc1ccccc1N1CCN(CCCC(=O)Nc2cccc(C(C)(C)C)c2)CC1 | – |
| 434 nM | 43 nM | COc1ccccc1N1CCN(CCCCCC(=O)Nc2ccc(C(C)C)cc2)CC1 | – |
| 141 nM | 34 nM | COc1ccccc1N1CCN(CCCCCC(=O)Nc2cccc(C(C)C)c2)CC1 | – |
| – | – | COc1ccccc1N1CCN(CCCCC(=O)Nc2ccc(C(C)C)cc2)CC1.Cl | IC50 [3]: 151000 nM; remaining at 2 h, 50 µM [10]: 90.1%; IC50 [4]: 80400 nM; Activity [14]: Non-Toxic; Papp at 5 h, 200 µM [13]: 10.5 ×10⁻⁶ cm/s; Activity [15]: Non-Toxic |
| 366 nM | 82 nM | COc1ccccc1CNC(=O)CCCCN1CCN(c2ccccc2OC)CC1 | – |
| 954 nM | 150 nM | COc1ccccc1N1CCN(CCCC(=O)Nc2ccc(C(C)C)cc2)CC1 | – |
| 151 nM | – | COc1ccccc1N1CCN(CCCCC(=O)Nc2cccc(C(C)C)c2)CC1.Cl | IC50 [3]: > 200000 nM; remaining at 2 h, 50 µM [10]: 6.5%; IC50 [4]: 88100 nM; Papp at 5 h, 200 µM [13]: 8.6 ×10⁻⁶ cm/s |
| 260 nM | 69 nM | CCC(C)c1ccc(NC(=O)CCCCCN2CCN(c3ccccc3OC)CC2)cc1 (centres undefined) | – |
| 515 nM | 64 nM | COc1ccccc1CNC(=O)CCCCCN1CCN(c2ccccc2OC)CC1 | – |
| 391 nM | 138 nM | COc1ccccc1N1CCN(CCCCC(=O)NCc2ccc(C(C)(C)C)cc2)CC1 | – |
| 190 nM | 53 nM | COc1ccccc1N1CCN(CCCCCC(=O)Nc2cccc(C(C)(C)C)c2)CC1 | – |
